Assay results from BindingDB's records for doi:10.1021/jm400938g (State Key Laboratory of Bioreactor Engineering, 2013).

Tests used:
[1] = biological target: Dihydroorotate dehydrogenase (quinone), mitochondrial (Homo sapiens, UniProt Q02127); assay: Inhibition of N-terminal His10-tagged human DHODH (Met30 to Arg396) expressed in Escherichia coli BL21 (DE3) using dihydroorotate as substrate measured every 30 secs for 6 mins by DCIP dye-based assay
[2] = biological target: T1, Dihydroorotate dehydrogenase (quinone), mitochondrial (Plasmodium falciparum, UniProt Q54A96); assay: Inhibition of Plasmodium falciparum DHODH (Phe158 to Ser569) expressed in Escherichia coli BL21 using dihydroorotate as substrate measured every 30 secs for 6 mins by DCIP dye-based assay
T1 sequence (Q54A96 whole entry): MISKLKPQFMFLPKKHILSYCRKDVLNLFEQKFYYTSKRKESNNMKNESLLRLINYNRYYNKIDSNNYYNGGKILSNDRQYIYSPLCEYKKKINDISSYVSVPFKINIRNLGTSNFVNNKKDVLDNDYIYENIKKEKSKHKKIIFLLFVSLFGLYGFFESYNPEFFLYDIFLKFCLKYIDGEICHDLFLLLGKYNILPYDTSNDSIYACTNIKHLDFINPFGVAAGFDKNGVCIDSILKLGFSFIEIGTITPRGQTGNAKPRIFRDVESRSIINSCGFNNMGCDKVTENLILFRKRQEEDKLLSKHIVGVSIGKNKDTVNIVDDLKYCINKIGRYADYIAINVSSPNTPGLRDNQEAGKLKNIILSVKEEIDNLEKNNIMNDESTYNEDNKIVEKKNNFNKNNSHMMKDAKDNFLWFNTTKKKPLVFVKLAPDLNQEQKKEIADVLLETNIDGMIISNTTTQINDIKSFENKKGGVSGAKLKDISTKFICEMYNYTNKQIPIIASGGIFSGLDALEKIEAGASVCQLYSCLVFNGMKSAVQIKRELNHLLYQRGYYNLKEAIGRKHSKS

Sequence of Dihydroorotate dehydrogenase (quinone), mitochondrial (Homo sapiens, UniProt Q02127) (Q02127 whole entry): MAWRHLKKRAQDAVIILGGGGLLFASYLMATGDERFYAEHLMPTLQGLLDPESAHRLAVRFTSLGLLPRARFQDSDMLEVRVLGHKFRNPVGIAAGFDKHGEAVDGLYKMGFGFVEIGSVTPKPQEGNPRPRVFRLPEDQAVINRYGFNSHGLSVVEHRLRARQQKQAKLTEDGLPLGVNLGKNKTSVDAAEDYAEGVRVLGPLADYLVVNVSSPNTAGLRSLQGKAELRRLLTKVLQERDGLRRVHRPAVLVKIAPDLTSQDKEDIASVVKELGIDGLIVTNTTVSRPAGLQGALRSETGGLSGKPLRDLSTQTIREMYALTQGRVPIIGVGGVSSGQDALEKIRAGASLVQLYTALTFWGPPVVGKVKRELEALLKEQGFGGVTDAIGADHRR

SMILES | IC50 [1] [µM] | IC50 [2] [µM]
O=C(NCC1CC1)c1c(O)csc1Nc1ccc2ccccc2c1 | > 50 | > 50
CCCCNC(=O)c1c(O)csc1Nc1ccc2ccccc2c1 | > 50 | > 50
CCCNC(=O)c1c(O)csc1Nc1ccc2ccccc2c1 | > 50 | > 50
Cc1ccc(Nc2scc(O)c2C(N)=O)cc1C | > 50 | > 50
Cc1ccc(Nc2scc(O)c2C(=O)O)cc1C | > 50 | > 50

The remaining lines, values ahead:

IC50 [1] [µM] | IC50 [2] [µM] | SMILES
> 50 | > 50 | CCOC(=O)c1c(O)csc1Nc1ccc(Br)cc1C
> 50 | > 50 | CCOC(=O)c1c(O)csc1Nc1cccc(C(F)(F)F)c1
> 50 | > 50 | CCOC(=O)c1c(O)csc1Nc1ccccc1
